Experimental findings from patent publication US4532240A, “Diaminopyrimidines” (Warner-Lambert Company, priority 1983, dated 1985) are described below.

The test system of one assay is B. subtilis. As to the kind of experiment: Antibacterial disk zone of inhibition, B. subtilis. It counts as cell-based, Bacillus subtilis 04555. Particulars: Bacillus subtilis; 0.1 mg/ml; read-out: Inhibition Zone diameter. Here is the method:
(§1) Vegetative bacterial isolates are maintained on agar slants or in liquid media, hereby designated as inoculum media. The cultures are transferred at regular intervals in such media. (See Table IV for the corresponding inoculum media of each culture.) The organisms are generally transferred either onto agar slants or into liquid inoculum media and incubated at 37° C. (at 28° C. with Xanthomonas sp.) overnight (18-20 hours).
(§2) The microbial cells from the overnight agar slants are then scraped off and suspended in saline solution (0.85% NaCl). The microbial concentrations are adjusted to a light transmission of 8.6% using a PerkinElmer Model 35 spectrophotometer (550 nm). For the organisms that are maintained in liquid media, one of two procedures is followed: (1) the culture suspension is first centrifuged at 5000 rpm for five minutes. The pellet is resuspended in 0.85% saline to 8.6% light transmittancy; (2) an aliquot of the culture suspension is to be added directly to the assay medium.
Isolate spore suspensions (Bacillus sp.) are maintained at 4° C. These suspensions serve as the inoculum media for assays.
(§3) A given molten-agar assay medium, maintained in a flask at approximately 45° C., is inoculated with 0.16-10 ml of an appropriate cell or spore suspension per 100 ml of medium. Fifty ml of the inoculated medium is poured into a Bio-Assay dish (A/S Nunc; Gibco Laboratories Catalog Number 240835) and spread evenly across the bottom, then allowed to solidify at room temperature. Each agar dish is inverted and refrigerated until used.
(§4) The compounds or samples to be tested are dissolved in suitable solvents, e.g., alcohols, dimethylsulfoxide, or N,N-dimethylformamide. The samples are generally dissolved so that the final concentration of the solvent is <10%.* The compounds are tested at different concentrations: 3,000; 1,000; 500; 100; and 10 mcg/ml. Paper discs (12.7 mm diameter) saturated with a given concentration of test compound are placed onto the seeded agar dishes with a pair of forceps.
(§5) The disked agar dishes are incubated at 37° C. (28° C. for Xanthamonas sp.) for 18-20 hours. Active compounds show a zone of inhibition around the disc. The diameter of the zone is measured in mm. The zone diameter of active compounds ranges from a minimum of 13.5 mm to as high as 60 mm. The size of the zone diameter generally reflects the activity of the compound: the larger the zone the greater the activity.

For another assay, the system named is B. catarrhalis. As to the kind of experiment: Antibacterial disk zone of inhibition, B. catarrhalis. Type of assay: cell-based, Branhamella catarrhalis 03596. To be noted: Moraxella catarrhalis; 0.01 mg/ml; read-out: Inhibition Zone diameter. The protocol:
as §1, §2, §3, §4, §5

The test system of the next assay is M. faecalis. The experiment in a line: Antibacterial disk zone of inhibition, M. faecalis (as headed). Type of assay: cell-based, Streptococcus faecalis 05045. To be noted: Enterococcus faecalis; 0.01 mg/ml; read-out: Inhibition Zone diameter. Here is the method: as §1, §2, §3, §4, §5
The next assay deals with S. lutea. The experiment in a line: Antibacterial disk zone of inhibition, S. lutea (as headed). It counts as cell-based, Micrococcus luteus 05064. Particulars: Micrococcus luteus; 0.01 mg/ml; read-out: Inhibition Zone diameter. The protocol:
as §1, §2, §3, §4, §5

Another assay has as its system X. phaseoli. As to the kind of experiment: Antibacterial disk zone of inhibition, X. phaseoli. Type of assay: cell-based, Xanthomonas phascoli 06002. Particulars: Xanthomonas; 3.0 mg/ml; read-out: Inhibition Zone diameter. Here is the method:
as §1, §2, §3, §4, §5

The subject of another assay is L1210 cells. As to the kind of experiment: In vitro antitumor screening on L1210 murine leukemia cell line (growth, Coulter counter). Type of assay: cell-based. To be noted: Mus musculus, L1210, 72 h; three days, 37° C., 5% CO2; read-out: L1210 Leukemia in vitro ID50. The protocol:
L1210 cells, a murine leukemia cell line, were grown in RPMI 1640 supplemented with 5% fetal bovine serum and gentamicin (50 μg/ml).
Drug dilutions were prepared in the appropriate solvent and 20 μl of each dilution were added to 24-well Linbro tissue culture plates, followed by the addition of M 2.0 ml of cell suspension containing 3×10^4cells per ml. Solvent and medium controls were included in each test. After incubation at 37° C. for three days in 5% CO2, the contents of each well were removed and the cells counted in a ZBI Coulter counter. Percent growth was calculated relative to the controls and the levels of drug activity were expressed as ID50 in moles per liter using probit paper.

Assay [1] concerns HCT-8 (human colon adenocarcinoma) cells. As to the kind of experiment: In vitro activity against HCT-8 human colon adenocarcinoma cells. It counts as cell-based. Particulars: HCT-8, 60-65 hours with compound, 37° C., read-out: ID50 against human colon adenocarcinoma. The protocol:
HCT-8 (human colon adenocarcinoma) cells are trypsinized using Trypsin-EDTA. A single cell suspension is achieved by passing the cells through a 26 gauge needle with a 20 cc syringe. A cell suspension is prepared using RPMI 1640+10% FCS+50 μg/ml garamycin with a cell concentration of approximately 30,000 cells/ml. The cell suspension is dispensed in Linbro 24-well plates; 1 ml/well. The plates are incubated for approximately 48 hours at 37° C. in a 5% CO2 atmosphere. At this time test compounds are added in the appropriate concentration. Five μl of the 200 μg/ml stock solution is added to each well in a primary test. Ten μl of the appropriate dilution is added to each well for a titration test. The plates are reincubated an additional 60-65 hours at 37° C. in a 5% CO2 atmosphere. The test is read by lysing the cells using a mix of cationic surfactant, glacial acetic acid and sodium chloride. […] of the lysed cell suspension from each well is added to 8 ml of diluent. Each sample is read on the Coulter counter (ZBI model). The activity of each sample is measured as a percentage of the controls and the data is reported as ID50, that is the molar quantity of drug required to kill 50% of the tumor cells.

For another assay, the system named is P388 Leukemia. As to the kind of experiment: In vivo lymphocytic leukemia P388 test in mice. Set-up: species or system CD2 F1 mice. To be noted: intraperitoneal, two single doses four days apart. Here is the method: The in vivo lymphocytic leukemia P388 test is carried out using the test system of the United States National Cancer Institute. The animals used are either male or female CD2 F1 mice. There are six to seven animals per test group. The tumor transplant is by intraperitoneal injection of dilute ascitic fluid containing cells of lymphocytic leukemia P388. The test compounds are administered intraperitoneally in two single doses with a four-day interval between doses at various dose levels following tumor inoculation. The animals are weighed and survivors are recorded on a regular basis for 30 days. A ratio of survival time for treated (T)/control (C) animals is calculated. The criterion for efficacy is T/C×100>125%. The positive control compound in this test is 5-fluorouracil. See Cancer Chemotherapy Reports, Part 3, 3, 1 (1972) for a comprehensive discussion of the protocol.

SMILES strings stand for the structures. Values joined by “and” are separate entries in the source; they are usually repeats but may differ in a detail not shown here. Equal entries are not always repeated. Structures can show the parent of a compound that is named as a salt.

Consider `CCOC(=O)CCC(NC(=O)c1ccc(N2CCN(c3c(N)nc(N)nc3CC)CC2)cc1)C(=O)OCC` (centres unmarked) [drawing 22], for which the zone of inhibition at 100 µg/mL in the assay with B. subtilis is 19 mm. Moreover, the figures for the zone of inhibition at 10 µg/mL with B. catarrhalis, in the assay on M. faecalis and in the assay with S. lutea were 20 mm, 15 mm and 19 mm, respectively. Moreover, the zone of inhibition at 3000 µg/mL in the assay on X. phaseoli was 3 mm.
As to `CCCc1nc(N)nc(N)c1N1CCN(c2ccc(C(=O)NC(CCC(=O)O)C(=O)O)cc2)CC1` (centres unmarked) [drawing 13], the IC50 with L1210 cells was 7.5 nM.
Take `CCOC(=O)CCC(NC(=O)c1ccc(N2CCN(c3c(N)nc(N)nc3CC)CC2)cc1)C(=O)OCC` (centres unmarked) [drawing 15]: the IC50 in assay [1] is 26 nM.
Regarding `CCCc1nc(N)nc(N)c1N1CCN(c2ccc(C#N)cc2)CC1` [Example 14, 5-[4-(4-cyanophenyl)-1-piperazinyl]-6-propyl-2,4-pyrimidinediamine], the IC50 worked out at 8.9 nM with L1210 cells and 120 nM in assay [1].
For the molecule `Cc1nc(N)nc(N)c1N1CCN(c2ccc(N)cc2)CC1` [Example 22], the IC50 with L1210 cells worked out at 80 nM.
On the same count and under the same terms, with `CCOC(=O)CCC(NC(=O)c1ccc(N2CCN(c3c(N)nc(N)nc3CC)CC2)cc1)C(=O)OCC` (centres unmarked) [drawing 10] the figure was 3.2 nM.
As for `COC(=O)CNC(=O)c1ccc(N2CCN(c3c(C)nc(N)nc3N)CC2)cc1` [Example 8, N-[4-[4-(2,4-Diamino-6-methyl-5-pyrimidinyl)-1-piperazinyl]benzoyl]glycine,methyl ester], the values for the IC50 (with L1210 cells; in assay [1]) were 17 nM and 800 nM, respectively.
As for `CNC(=O)c1ccc(N2CCN(c3c(C)nc(N)nc3N)CC2)cc1` [Example 7, 4-[4-(2,4-Diamino-6-methyl-5-pyrimidinyl)-1-piperazinyl]-N-methyl benzamide, hydrate (100:45)], the IC50 with L1210 cells came to 2.5 nM; in assay [1], 67 nM.
For the molecule `Cc1nc(N)nc(N)c1N1CCN(c2ccc(C(=O)N[C@@H](CCC(=O)O)C(=O)O)cc2)CC1` [Example 3, N-[4-[4-(2,4-diamino-6-methyl-5-pyrimidinyl)-1-piperazinyl]benzoyl]-L-glutamic acid], the “T/C × 100” value is 144% and 137% with P388 Leukemia (6.25 mg/kg, listed as CH3, H, H, 4-CONHCH(CO2 H)CH2 CH2 CO2 H); 155% and 168% in the assay with P388 Leukemia (12.5 mg/kg, listed as CH3, H, H, 4-CONHCH(CO2 H)CH2 CH2 CO2 H); 172% and 167% in the assay with P388 Leukemia (25 mg/kg, listed as CH3, H, H, 4-CONHCH(CO2 H)CH2 CH2 CO2 H); 222% with P388 Leukemia (50 mg/kg); 188% in the assay with P388 Leukemia (50 mg/kg, listed as CH3, H, H, 4-CONHCH(CO2 H)CH2 CH2 CO2 H).
With `Cc1nc(N)nc(N)c1N1CCN(c2ccc(C(=O)O)cc2)CC1.Cl` [Example 1, 4-[4-(2,4-Diamino-6-methyl-5-pyrimidinyl)-1-piperazinyl]benzoic acid hydrochloride], the “T/C × 100” value is 141% and 146% in the assay on P388 Leukemia (6.25 mg/kg, listed as CH3, H, H, 4-CO2 H, hydrochloride); 179% and 227% in the assay on P388 Leukemia (12.5 mg/kg, listed as CH3, H, H, 4-CO2 H, hydrochloride); 137% in the assay on P388 Leukemia (25 mg/kg); 258% in the assay with P388 Leukemia (50 mg/kg). Further, in the assay on P388 Leukemia (50 mg/kg), the “survival rate after 30 days” value is 3/6.
Consider `CCOC(=O)c1ccc(N2CCN(c3c(C)nc(N)nc3N)CC2)cc1` [Example 6, 4-[4-(2,4-Diamino-6-methyl-5-pyrimidinyl)-1-piperazinyl]benzoic acid, ethyl ester], for which the figures for the IC50 (in the assay with L1210 cells; in assay [1]) were 5 nM and 49 nM, respectively.
For `Cc1nc(N)nc(N)c1N1CCN(c2ccc(Cl)cc2)CC1` [Example 21, 5-[4-(4-chlorophenyl)-1-piperazinyl]-6-methyl-2,4-pyrimidinediamine] the same measures were 28 nM and 350 nM.
As to `CCc1nc(N)nc(N)c1N1CCN(c2ccc(C(=O)NC(CCC(=O)O)C(=O)O)cc2)CC1` (centres unmarked) [drawing 11], in the assay with L1210 cells, the IC50 amounted to 2000 nM.
`CCCc1nc(N)nc(N)c1N1CCN(c2ccc(C(=O)NC(CCC(=O)O)C(=O)O)cc2)CC1` (centres unmarked) [drawing 17]: the IC50 in assay [1] was 85 nM.
Turning to `CCOC(=O)CCC(NC(=O)c1ccc(N2CCN(c3c(N)nc(N)nc3CC)CC2)cc1)C(=O)OCC` (centres unmarked) [drawing 19], the “T/C × 100” value in the assay on P388 Leukemia (6.25 mg/kg) is reported as 163%; in the assay on P388 Leukemia (12.5 mg/kg), 183%; with P388 Leukemia (25 mg/kg) it was 241%; in the assay with P388 Leukemia (50 mg/kg) it was 258%. The “survival rate after 30 days” value is 2/6 in the assay on P388 Leukemia (25 mg/kg) and 5/6 in the assay with P388 Leukemia (50 mg/kg).
Turning to `Cc1nc(N)nc(N)c1N1CCN(c2ccc([N+](=O)[O-])cc2)CC1` [Example 4, 6-Methyl-5-[4-(4-nitrophenyl)-1-piperazinyl]-2,4-pyrimidinediamine, hydrate (10:1)], the IC50 in the assay with L1210 cells was 15 nM; in assay [1], more than 1000 nM.
With `CCc1nc(N)nc(N)c1N1CCN(c2ccc(C#N)cc2)CC1` [Example 10, 5-[4-(4-cyanophenyl)-1-piperazinyl]-6-ethyl-2,4-pyrimidinediamine], the IC50 in the assay on L1210 cells was found to be 7.7 nM; in assay [1], 89 nM. In addition, the “T/C × 100” value in the assay on P388 Leukemia (50 mg/kg) is 126%.
For `Cc1nc(N)nc(N)c1N1CCN(c2ccccc2)CC1` [Example 20, 6-Methyl-5-(4-phenyl-1-piperazinyl)-2,4-pyrimidinediamine, hydrochloride (5:1)], in the assay with L1210 cells, the IC50 worked out at 150 nM.
Regarding `CCc1nc(N)nc(N)c1N1CCN(c2ccc(C(=O)NC(CCC(=O)O)C(=O)O)cc2)CC1` (centres unmarked) [drawing 16], the IC50 in assay [1] was determined as 120 nM.
